Target: T1, Y705P STAT3 and S727P STAT3 (Homo sapiens, UniProt P40763)
T1 construct: tissue Jackson Laboratories TM00096; host or cells: patient-derived TNBC tumour in NOD.Cg-Prkdcscid Il2rgtm1Wjl/SzJ mice
Assay: IHC and immunoblot of phospho-STAT3 in PDX tumors
Type: in vivo, mouse
Details: tumor tissue; for expression of Y705PSTAT3 (IHC): p<0.0001 versus vehicle
Protocol: FIG. 15 illustrates an embodiment of the present invention and illustrates SIM 1 and 2 inhibited Y705P phosphorylation of STAT3 and the expressions of STAT3-dependent tumor supportive genes. (A) DAB immunostaining of Y705P STAT3 in tumor parenchyma of all three groups. (B) Quantitative analysis of Y705P STAT3-ir cells was performed by counting Y705P STAT3 cells in 15 different images, converting into a percent scale, and then plotting in a scatter histogram. On-way ANOVA followed by multiple comparison test indicated ****p<0.0001 versus control. (C) DAB immunostaining of S727P STAT3 followed by a (D) quantitative analysis of S727P STAT3-ir cells was performed in 15 different images and then plotted as a percent of total cells by a scatter histogram. On-way ANOVA represents no significance (NS) between groups. (E) Immunoblot analyses of Y705PSTAT3 (Rabbit […] antibody Cat #710093; Invitrogen), S727PSTAT3 (Mouse 1° antibody cat #MA5-15208; Invitrogen) followed by normalization with loading control β-actin (Mouse 1° antibody cat #MA1-744; Invitrogen). (F) A cDNA-based gene array of 66 STAT3-dependent tumor promoting genes were analyzed in TNBC tumors of vehicle-, SIM-1-, and SIM-2-treated mice. (G) A scatter plot summarized the gene array results. Based on the relative levels of expressions, gene levels were classified as low, moderate, and highly expressed. Results are confirmed after three different experiments.
Immunoblot assay. Immunoblot assay was performed as described before. Briefly, cell lysates were mixed with 5× Lamelli buffer, electrophoresed in 4-12% Tris-Glycine gel in tris-glycine SDS running buffer, transferred in a nitrocellulose membrane (P/N 926-31090; Li-Cor Biosciences, Lincoln, NE) in tris-glycine transfer buffer, incubated with appropriate primary antibodies overnight under shaking condition, labeled with IRDye700 and 800-tagged secondary antibodies for 2 hrs at room temperature in an orbital shaker, and then imaged in Odyssey Sa imager at 200 μm resolution.
Immunohistochemical (IHC) analyses. Tumor tissues were embedded in paraffin, cut at a thickness of 5 μm in Leica microtome, attached to a charged slide, dried in a dry bath at 37° C. for at least 48 hrs., and then progressed for IHC analysis. The IHC analysis was performed where, briefly, sections were deparaffinized by xylene and rehydrated by ethanol gradient (100%>70%>50%>20%; v/v) followed by complete rehydration by water. After that sections were blocked by Intercept® (TBS) Blocking Buffer (Licor Biosciences, Lincoln, NE) for 30 minutes, incubated with primary (1°) antibodies (Refer to Table 1) overnight at 4° C., washed with 1×TBST wash buffer for 3 times, incubated with biotinylated anti-mouse (1:200 dilution) or anti-rabbit (1:200 dilution) secondary (2°) antibodies (ThermoFisher), for 2 hrs., reacted with VECTASTAIN® Elite® ABC-HRP Kit, Peroxidase (Cat #PK-6100; Vector Laboratories) for 1 hr. as per manufacturer's recommendation, and finally stained with DAB chromogenic solution (Cat #SK-4100; Vector Laboratories).
This example provides a representative experiment that tested if SIM-1 and SIM-2 suppressed the activation of STAT3 in TNBC tumors. […] The result was further corroborated by the quantitative analysis (FIG. 15B), which indicated a significant downregulation of Y705PSTST3-ir cells (One-way ANOVA indicated ****p<0.0001 versus vehicle).
On the contrary, the expression of S727PSTAT3, another active isomer of STAT3, remained very low and unchanged across the treatment groups (FIG. 15C).
These genes include anti-apoptotic genes such as bcl-2, survivin, and bcl-xl; cell cycle progression markers such as cyclin D1, akt, and p21.

T1 sequence (P40763 2-770 Y705P/S727P limits assumed): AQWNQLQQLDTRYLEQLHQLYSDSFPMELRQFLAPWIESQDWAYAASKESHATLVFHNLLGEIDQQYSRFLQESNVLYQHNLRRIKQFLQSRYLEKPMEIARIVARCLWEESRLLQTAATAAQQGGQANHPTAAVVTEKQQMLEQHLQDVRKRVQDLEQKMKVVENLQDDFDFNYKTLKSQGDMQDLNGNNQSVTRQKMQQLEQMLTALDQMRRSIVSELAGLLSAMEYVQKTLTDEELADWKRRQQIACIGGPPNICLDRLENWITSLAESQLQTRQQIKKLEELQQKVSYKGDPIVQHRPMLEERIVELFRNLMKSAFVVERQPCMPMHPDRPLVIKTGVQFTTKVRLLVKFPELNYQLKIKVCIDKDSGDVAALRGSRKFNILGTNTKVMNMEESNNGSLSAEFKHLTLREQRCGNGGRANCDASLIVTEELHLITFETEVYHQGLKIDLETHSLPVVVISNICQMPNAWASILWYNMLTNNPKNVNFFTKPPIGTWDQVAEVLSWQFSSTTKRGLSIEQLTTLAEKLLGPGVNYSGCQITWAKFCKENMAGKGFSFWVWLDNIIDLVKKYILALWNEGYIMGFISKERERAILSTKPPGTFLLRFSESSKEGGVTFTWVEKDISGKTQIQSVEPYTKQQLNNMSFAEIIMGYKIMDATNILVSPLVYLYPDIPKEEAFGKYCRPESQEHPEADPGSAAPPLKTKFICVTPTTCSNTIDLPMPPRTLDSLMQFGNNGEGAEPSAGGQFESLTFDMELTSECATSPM

Compound	S727P STAT3 expressions (IHC)	Y705 phosphorylation of STAT3 (immunoblot)	expression of Y705PSTAT3 (IHC)
O=C(O)CCC(=O)NCc1csc2ccc(Cl)cc12 [SIM-1, 4-[(5-chloro-1-benzothiophen-3-yl)methylamino]-4-oxobutanoic acid]	did not show any change	strongly and selectively suppressed	significantly suppressed
CCOC(=O)c1c(NC(C)=O)sc2c(Cl)c(/C=N/O)ccc12 [SIM-2, ethyl 2-acetamido-7-chloro-6-(hydroxyiminomethyl)-1-benzothiophene-3-carboxylate]	did not show any change	strongly and selectively suppressed	completely ameliorated
